# Patent US20090280982A1, “Quinolinylmethyl Compounds” (BASF SE, priority 2006, published 2009)
# How the values were obtained:
# [1] = test system: Green Peach Aphid (Myzus persicae); conditions: in vivo
# Excerpt: II.2 Activity Against Green Peach Aphid (Myzus persicae)
# The active compounds were formulated in 50:50 acetone:water and 100 ppm Kinetic™ surfactant.
# Pepper plants in the 2nd leaf-pair stage (variety California Wonder) were infested with approximately 40 laboratory-reared aphids by placing infested leaf sections on top of the test plants. The leaf sections were removed after 24 hr. The leaves of the intact plants were dipped into gradient solutions of the test compound and allowed to dry. Test plants were maintained under fluorescent light (24 hour photoperiod) at about 25° C. and 20-40% relative humidity. Aphid mortality on the treated plants, relative to mortality on check plants, was determined after 5 days.
# [2] = test system: Diamond Back Moth (plutella xylostella); conditions: in vivo
# Method: II.5 Activity Against Diamond Back Moth (plutella xylostella)
# The active compounds were formulated in 50:50 acetone:water and 0.1% (vol/vol) Alkamuls EL 620 surfactant. A 6 cm leaf disk of cabbage leaves was dipped in the test solution for 3 seconds and allowed to air dry in a Petri plate lined with moist filter paper. The leaf disk was inoculated with 10 third instar larvae and kept at 25-27° C. and 50-60% humidity for 3 days. Mortality was assessed after 72 h of treatment.
# [3] = test system: Brown Planthopper (nilaparvata lugens); experiment: Activity against brown planthopper (II.7); type: in vivo; conditions: for mortality [%] at 300 ppm: brown plant hopper (II.7)
# Method: II.7 Activity Against Brown Planthopper (nilaparvata lugens)
# The active compounds were formulated as a 20:80 acetone:water solution. Surfactant (Alkamuls EL 620) was added at the rate of 0.1% (vol/vol).
# Potted rice plants of 3-4 weeks of age are sprayed with 10 ml of the test solution using air driven hand atomizer (Devillbis atomizer) at 1.7 bar. The treated plants are allowed to dry for about 1 hour and covered with Mylar cages. The plants are inoculated with 10 adults of the specie (5 male and 5 females) and kept at 25-27° C. and 50-60% humidity for 3 days. Mortality is assed after 24, 48 and 72 hours after treatment. Dead insects are usually found in the water surface. Each treatment is replicated once.
# [4] = test system: Flea Beetle (Phylotretta striolata); experiment: Activity against flea beetle (II.19); type: in vivo; conditions: at 300 ppm; after 3 days; leaf disc dip
# Method: II.19 Activity Against Flea Beetle (Phylotretta striolata)
# Flea bettle (Phylotretta striolata) adults used for bioassay are obtained from a colony maintained continuously under laboratory conditions. For testing purposes, the test compound is diluted to a concentration of 300 ppm (wt compound: vol diluent) in a 1:1 mixture of acetone:water, plus 0.1% EL 620 surfactant.
# Activity of each compound is evaluated using a […]. Glass petri dishes (60×15 mm) lined with moist filter paper serves as test arenas. All leaf discs are dipped into treatment solution for approximately 3 seconds and allowed to dry for 2 hours. Each treated leaf disc is placed into individual petri dishes and inoculated with 10 adult beetles. Petri dishes are then covered with lids. All test arenas are held under continuous light and a temperature of about 28° C. for duration of the assay. After 3 days, percent mortality is observed.
# [5] = test system: Rice Green Leaf Hoppers (Nephotettix virescens); experiment: Activity against rice green leaf hoppers (II.20); type: in vivo; conditions: at 300 ppm; after 72 hours; rice foliar spray
# Method: II.20 Activity Against Rice Green Leaf Hoppers (Nephotettix virescens)
# Leaf hopper adults used for bioassay are obtained from a colony maintained continuously under laboratory conditions. For testing purposes, the test compound is diluted in 300 ppm (wt compound:vol diluent) in a 1:1 mixture of acetone:water, plus 0.1% EL 620 surfactant.
# Hopper activity is evaluated using the foliar spray technique. Potted rice plants (2-3 week old, Variety TN-1) are cleaned and dried prior to application. All plants are treated inside the fume hood using DeVilbiss atomizer at 25 psi with a spray volume of 5 ml/plant. To ensure uniform spray distribution, plants were placed in a rotating flat form inside the fume hood. Treated plants are then placed inside the holding room and allowed to dry for 2 hours. Each plant are caged using Mylar cages (4 inches diameter×19 inches in height) and inoculated with 10 adults hoppers. All test plants are held under continuous light and a temperature of about 28° C. for duration of the assay. Percent mortality is observed after 72 hours.
SMILES,mortality [%] at 10 ppm [1] [%],mortality [%] at 100 ppm [1] [%],mortality [%] at 300 ppm [1] [%],mortality [%] at 300 ppm [2] [%],mortality [%] at 300 ppm [3] [%],"mortality in comparison with untreated controls ([3]; at 300 ppm, rice plants sprayed, up to 72 hours)",mortality in comparison with untreated controls [4],mortality in comparison with untreated controls [5]
O=S(=O)(NCc1ccnc2ccccc12)c1ccc(-c2ccc(C(F)(F)F)cc2)c(Cl)c1 [Compound B24],90,90,100,100,–,–,–,–
"O=S(=O)(NCc1ccnc2ccccc12)c1ccc(-c2ccc(C(F)(F)F)cc2)cc1 [Compound C2, reference compound]",0,60,100,0,0,–,–,–
"O=S(=O)(NCc1ccnc2ccccc12)c1ccc(-c2ccc(OC(F)(F)F)cc2)cc1 [Compound C1, reference compound]",–,0,60,–,–,–,–,–
O=S(=O)(NCc1ccnc2ccccc12)c1ccc(-c2ccc(C(F)(F)F)cc2)c(C(F)(F)F)c1 [Compound B16],–,–,–,–,100,at least 75%,–,–
O=S(=O)(NCc1ccnc2ccccc12)c1ccc(-c2ccc(OC(F)(F)F)cc2)c(F)c1 [Compound B14],–,90,90,–,–,–,–,–
O=S(=O)(NCc1ccnc2ccccc12)c1ccc(-c2ccc(C(F)(F)F)cc2Cl)cc1F [Compound B85],–,–,–,–,–,–,at least 75%,at least 75%
